Several values for one entry are separate records, joined by “and”; a condition that tells them apart may be missing. Identical values can stand only once. Like-named read-outs stand apart in the source and are kept apart here.
Experiments:
primary T cell 1 [1] = test: Survival, trypan blue exclusion; format: cell-based, human; conditions: first 24 hr, trypan blue exclusion at 7 days, read-out: IC50 (survival), cisplatin alone
Experimental: A. […] Viable cells were scored and enumerated by trypan blue exclusion at 7 days. […] Approximately 50 metaphases were counted for each cell. Error bars depict the mean with SD. Asterisks designate statistical significance for unpaired t-test at P < 0.0001. C. […] One hundred metaphases were counted for each exposure. […] The y-axis is the number of total chromatid-type aberrations per chromosome for each metaphase counted. Error bars indicate mean with SEM. The P-values were calculated using unpaired t-test.

primary T cell 1 [2] = test: Chromosomal aberrations on metaphase spreads (Giemsa); format: cell-based, human; conditions: 0.5 μM cisplatin alone, 24 hr
Experimental: (§1) To prepare metaphase spreads, exponentially growing cells were treated with 0.1–0.3 μg/ml of colcemid for 1–6 hr. Cells were collected and incubated in hypotonic solution (0.56% KCl), fixed in methanol: acetic acid (3:1), spotted to slides and air-dried. To measure chromosomal aberrations, the slides were stained with 2% Giemsa/Sorensen’s buffer. To visualize SCEs, the doubling time for each cell type was determined. Cells were incubated with 10 μM BrdU for two cell cycles. After metaphase spreads were prepared, the slides were treated with 0.5 μg/ml Hoechst 33258. The slides were exposed to black light for 20–60 min, incubated at 60°C for 2 hr, and stained in 4–10% Giemsa/Sorensen’s buffer.

MCF-10A [3] = test: Clonogenic survival assay; format: cell-based, human
Experimental: Clonogenic survival was assessed by colony counting at 9 days. […] Viable cells were scored and enumerated by trypan blue exclusion at 7 days. Means with SD are shown (MCF-10A: n = 3, primary T cell 1: n = 2). […] Fold increases of SCE per chromosome compared with no treatment or 0.5 μM cisplatin are shown for each cell type. Approximately 50 metaphases were counted for each cell. Error bars depict the mean with SD. Asterisks designate statistical significance for unpaired t-test at P < 0.0001. C. […] One hundred metaphases were counted for each exposure. Fold increases of chromatid-type aberrations per chromosome compared with no treatment or 0.5 μM cisplatin are shown for each cell type. The y-axis is the number of total chromatid-type aberrations per chromosome for each metaphase counted. Error bars indicate mean with SEM. The P-values were calculated using unpaired t-test.
(§2) Human mammary epithelial cell lines used included non-tumorigenic diploid MCF-10A, HMEC-hTERT and tumorigenic MDA-MB-468 (basal) and MCF-7 (luminal). […] Blood samples were obtained from normal donor participants. The participants provided written informed consent to IRB protocol #95–054 approved by the Institutional Review Board at MSKCC. The original signed consent is then sent to the research participant’s medical record and a copy of the consent is given to the participant. The EBV-transformed B-lymphocyte cell line (EBV-BL) was generated by transformation of peripheral blood mononuclear cells (PBMC) with the B95.8 strain of EBV, as previously described. Primary T cells were generated from PBMC from two normal donors by non-specific activation with phytohemagglutinin and cultured in RPMI1640 and human serum AB for 4–14 days before use. E14 mES cell line was provided by M. Hooper, Brca1^-/- 236.44 mES cell line was provided by B. H. Koller, Brca2^lex1/lex2 mES cell line was provided by P. Hasty and Lexicon Genetics. E14 wild-type, Brca1^-/- 236.44, and Brca2^lex1/lex2 mES cell lines were cultured in standard ES media. Brca1^-/- 236.44 cells express a BRCA1 peptide deleted for sequences encoded by exon 11 [52], while Brca2^lex1/lex2 cells express a BRCA2 peptide deleted for the terminal exon 27 [53]. Olaparib was synthesized in the MSKCC Organic chemistry core facility. Veliparib and BSI-201 were purchased from Chemie Tek. The compounds were dissolved in DMSO and PBS. For clonogenic survival assays, MCF-10A (1000 cells), HMEC-hTERT (1000 cells), MDA-MB-468 (1500 cells) and mouse ES cell (2000 cells) were seeded, vehicle control or inhibitors were added at the indicated concentration 24 hours after seeding and changed every three days for continuous treatment. At 7–14 days, colonies were fixed with methanol and stained with Giemsa. For EBV-BL (6 × 10^6) and primary T cells (3.6 × 10^6) were continuously exposed to the indicated concentration of drug for 10 days at 0.6 × 10^6 cells/ml. Viable cells were scored by trypan blue exclusion.

primary T cell 1 [4] = test: Sister chromatid exchange (SCE) assay, BrdU differential staining; format: cell-based, human; conditions: 0.5 μM cisplatin alone, first 24hr
Source text: as §2, §1

MCF-10A [5] = test: as above; format: cell-based, human
Source text: as §2, §1

BRCA-deficient mES cells = tested on: BRCA-deficient mES cells; set-up: method as in PMID 15829967; conditions: cited from earlier work
EBV-BL [6] = test: Survival, trypan blue exclusion test of cell viability; format: cell-based, human; conditions: Homo sapiens, 240 h, continuous exposure 10 days, trypan blue exclusion
Source text: as §2, with “Olaparib was synthesized in the MSKCC Organic chemistry core facility.” left out

WT E14 mES cells = test: Clonogenic survival assay, mES cells; format: cell-based; conditions: Mus musculus, read-out: IC50 (clonogenic survival)
Source text: as §2, with “Olaparib was synthesized in the MSKCC Organic chemistry core facility.” left out

[7] = tested on: cellular PARP activity in EBV-BL; test: Cellular PARP activity assay (PAR levels, HT PARP In vivo Pharmacodynamic Assay); format: cell-based, human
Experimental: Cellular PARP activity was determined by measuring net PAR expression using HT PARP In vivo Pharmacodynamic Assay (Trevigen) as specified by the manufacturer. PAR levels in samples were calculated using standard curves and normalized using protein concentration. Protein concentration was measured with Lowry protocol using RC DC Protein Assay Kits (Bio-Rad).

[8] = tested on: Brca2^lex1/lex2 mES cells; test: Clonogenic survival assay, mES cells; format: cell-based, mouse; conditions: for IC50: Mus musculus, read-out: IC50 (clonogenic survival)
Source text: as §2, with “Olaparib was synthesized in the MSKCC Organic chemistry core facility.” left out

[9] = tested on: Brca1^-/- 236.44 mES cells; test: Clonogenic survival assay, mES cells; format: cell-based, mouse; conditions: for IC50: Mus musculus, read-out: IC50 (clonogenic survival)
Source text: as §2, with “Olaparib was synthesized in the MSKCC Organic chemistry core facility.” left out

EBV-BL [10] = test: Sister chromatid exchange (SCE) assay, BrdU differential staining; format: cell-based, human
Source text: as §2, §1

[11] = Homo sapiens, continuous exposure, clonogenic survival assay, read-out: IC50 (cell survival)

Question: Which results are given for N.N.[Cl][Pt][Cl] [cisplatin]?
Answer: IC50 (primary T cell 1 [1]): 1.74 µM; Fold increase of chromatid-type aberrations per chromosome compared with no treatment (primary T cell 1 [2]): 2 fold; total chromatid-type aberrations / metaphase (mean ± SEM) (primary T cell 1 [2]): 0.38 ± 0.07; chromatid-type gap/break (primary T cell 1 [2]; 100 metaphases): 36; chromatid-type radial chromosome (primary T cell 1 [2]; 100 metaphases): 1; chromatid-type telomere association (primary T cell 1 [2]; 100 metaphases): 0; chromosome-type dicentric (primary T cell 1 [2]; 100 metaphases): 1; chromosome-type gap/break (primary T cell 1 [2]; 100 metaphases): 6; total chromatid-type aberrations (primary T cell 1 [2]; 100 metaphases): 38; IC50 (MCF-10A [3]; cisplatin first 30 hr, colony counting at 9 days, read-out: IC50 (survival), cisplatin alone): 3.4 µM; Fold increase of SCE per chromosome compared with no treatment (primary T cell 1 [4]): 3.8 fold; Mean no. SCE / chromosome ± SD (primary T cell 1 [4]): 0.79 ± 0.23; Mean no. SCE / metaphase ± SD (primary T cell 1 [4]): 36.6 ± 10.8; Fold increase of SCE per chromosome compared with no treatment (MCF-10A [5]; 0.5 μM cisplatin alone, 30 hr): 6.3 fold; Mean no. SCE / chromosome ± SD (MCF-10A [5]; 0.5 μM cisplatin alone, 30 hr): 1.03 ± 0.12; Mean no. SCE / metaphase ± SD (MCF-10A [5]; 0.5 μM cisplatin alone, 30 hr): 47.7 ± 5.5

Question: Which “sensitivity of BRCA-deficient mES cells” value (BRCA-deficient mES cells) does the source give for O=C(c1cc(Cc2n[nH]c(=O)c3ccccc23)ccc1F)N1CCCNCC1 [KU0058948] here?
Answer: Its value is “marked hypersensitivity”.

Question: With NC(=O)c1ccc(I)c([N+](=O)[O-])c1 [BSI-201] as the molecule, how does the IC50 (EBV-BL [6]; EBV-BL, read-out: IC50 (cell survival)) read?
Answer: Its IC50 is 48.9 µM.

Question: And the IC50 (WT E14 mES cells; wild-type E14 mES cells)?
Answer: The IC50 was 111 µM.

Question: And the IC50 (MCF-10A [3]; [11])?
Answer: Its IC50 is 56 µM.

Question: And the “decrease of PARP activity” value ([7]; EBV-BL, 24 hr, BSI-201 treated, vs untreated cells)?
Answer: Its value is ~ 60%.

Question: And the IC50 ([8]; Brca2^lex1/lex2 mES cells)?
Answer: The IC50 was 70 µM.

Question: And the “enhanced sensitivity of cells lacking wild-type BRCA2 vs wild-type cells” value ([8]; ratio of IC50, wild-type / Brca2^lex1/lex2)?
Answer: Its value is 1.6 fold.

Question: And the IC50 ([9]; Brca1^-/- 236.44 mES cells)?
Answer: The IC50 was 74 µM.

Question: And the “enhanced sensitivity of cells lacking wild-type BRCA1 vs wild-type cells” value ([9]; ratio of IC50, wild-type / Brca1^-/- 236.44)?
Answer: The value was 1.5 fold.

Question: What about the “Mean no. SCE / metaphase ± SD” value (EBV-BL [10]; 20 μM) of the same molecule?
Answer: Its value is 8.4 ± 3.6.

Question: What about the “Mean no. SCE / metaphase ± SD” value (EBV-BL [10]; 40 μM) of the same molecule?
Answer: The value was 9.4 ± 2.9.

Question: What about the “Mean no. SCE / metaphase ± SD” value (EBV-BL [10]; 80 μM) of the same molecule?
Answer: The value was 16.6 ± 4.2.

Question: What about the “Mean no. SCE / metaphase ± SD” value (MCF-10A [5]; 20 μM) of the same molecule?
Answer: The value was 7.9 ± 2.9.

Question: And the “Mean no. SCE / metaphase ± SD” value (MCF-10A [5]; 40 μM)?
Answer: The value was 8.6 ± 2.9.

Question: What about the “Mean no. SCE / metaphase ± SD” value (MCF-10A [5]; 80 μM) of the same molecule?
Answer: Its value is 9.4 ± 2.6.

Question: Which “sensitivity of BRCA-deficient mES cells” value (BRCA-deficient mES cells) does the source give for O=C1CCC(=O)N1c1cc(Cc2n[nH]c(=O)c3ccccc23)ccc1F [KU0058684] here?
Answer: Its value is “marked hypersensitivity”.

Question: With C[C@]1(c2nc3c(C(N)=O)cccc3[nH]2)CCCN1 [veliparib] as the molecule, how does the IC50 (EBV-BL [6]; read-out: IC50 (cell survival), EBV-BL) read?
Answer: Its IC50 is 42.5 µM.

Question: What about the IC50 (WT E14 mES cells) of the same molecule?
Answer: The IC50 was 1.6 µM.

Question: And the IC50 (MCF-10A [3]; [11])?
Answer: The IC50 was 69.1 µM.

Question: What about the “decrease of PARP activity” value [7] of the same molecule?
Answer: Its value is ~ 98% and > 99%.

Question: What about the IC50 [8] of the same molecule?
Answer: The IC50 was 0.171 µM.

Question: And the IC50 [9]?
Answer: Its IC50 is 0.0097 µM.

Question: What about the “Mean no. SCE / metaphase ± SD” value (EBV-BL [10]; 1.5 μM) of the same molecule?
Answer: Its value is 18.7 ± 4.6.

Question: And the “Mean no. SCE / metaphase ± SD” value (EBV-BL [10]; 10 μM)?
Answer: The value was 32.2 ± 7.2.

Question: And the “Mean no. SCE / metaphase ± SD” value (MCF-10A [5]; 1.5 μM)?
Answer: The value was 26.9 ± 6.6.

Question: And the “Mean no. SCE / metaphase ± SD” value (MCF-10A [5]; 10 μM)?
Answer: Its value is 51.3 ± 9.4.

Source: article PMC4948780, “PARP Inhibitors in Clinical Use Induce Genomic Instability in Normal Human Cells” (PLoS ONE, 2016)
